Reference: patent publication US20240109903A1, “SUBSTITUTED HETEROCYCLES FOR TREATING CANCER” (Northwestern University, priority 2022, published 2024)
Where two headings read alike, the source gives them in different places.

Assays:
IGROV1 = test: NCI 60 five-dose screen IGROV1; assay type: cell-based; details: Homo sapiens
HCT-15 = test: NCI 60 five-dose screen HCT-15; assay type: cell-based; details: Homo sapiens; for CC50: read-out: LC50 (the source's name) (converted)
EKVX = test: NCI 60 five-dose screen EKVX; assay type: cell-based; details: Homo sapiens; for CC50: read-out: LC50 (the source's name) (converted)
CCRF-CEM = test: NCI 60 five-dose screen CCRF-CEM; assay type: cell-based; details: Homo sapiens; for CC50: read-out: LC50 (the source's name)
786-0 = test: NCI 60 five-dose screen 786-0; assay type: cell-based; details: Homo sapiens; for CC50: read-out: LC50 (the source's name) (converted)
BT-549 = test: NCI 60 five-dose screen BT-549; assay type: cell-based; details: Homo sapiens; for CC50: read-out: LC50 (the source's name) (converted)
NCI-H460 = test: NCI 60 five-dose screen NCI-H460; assay type: cell-based; details: Homo sapiens; for CC50: read-out: LC50 (the source's name) (converted)
NCI-H522 = test: NCI 60 five-dose screen NCI-H522; assay type: cell-based; details: Homo sapiens
NCI/ADR-RES = test: NCI 60 five-dose screen NCI/ADR-RES; assay type: cell-based; details: Homo sapiens; for CC50: read-out: LC50 (the source's name) (converted)
MCF7 = test: NCI 60 five-dose screen MCF7; assay type: cell-based; details: Homo sapiens; for CC50: read-out: LC50 (the source's name) (converted)
[1] = tested on: MV-4-11 acute myeloid leukemia cells; test: CellTiter-Glo 2.0 cell viability, MV-4-11; assay type: cell-based; details: Homo sapiens
How it was run: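 MV4-11 cells plated at 3,000 cells/well on pre-dispensed compounds and incubated 3 days at 37 °C, 5% CO2. Viability read as ATP-dependent luminescence with CellTiter-Glo 2.0 after 20 min at ambient temperature, followed by regression analysis.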

CAKI-1 = test: NCI 60 five-dose screen CAKI-1; assay type: cell-based; details: Homo sapiens; for CC50: read-out: LC50 (the source's name) (converted)
OVCAR-8 = test: NCI 60 five-dose screen OVCAR-8; assay type: cell-based; details: Homo sapiens; for CC50: read-out: LC50 (the source's name) (converted)
full NCI 60 cell panel = test: NCI 60 Cell One-dose screen; assay type: cell-based, human; details: single high dose 10^−5 M, NCI 60 panel
From the text: Compounds were submitted to the NCI 60 Cell screen and tested at a single high dose (10^−5 M) in the full NCI 60 cell panel (see the following reference for details of using NCI 60 human tumor cell lines for screening anticancer drugs: Shoemaker R H. The NCI60 human tumor cell line anticancer drug screen. Nature Rev Cancer 2006; 6: 813-23). The One-dose data is reported as a mean graph of the percent growth of treated cells. The number reported for the One-dose assay is growth relative to the no-drug control, and relative to the time zero number of cells. This allows detection of both growth inhibition (values between 0 and 100) and lethality (values less than 0). For example, a value of 100 means no growth inhibition. A value of 40 would mean 60% growth inhibition. A value of 0 means no net growth over the course of the experiment. A value of −40 would mean 40% lethality. A value of −100 means all cells are dead. FIGS. 1-8 show the mean graph of percent growth against the NCI-60 cell panel for NUCC-0226674, NUCC-0226679, NUCC-0226680, NUCC-0226683, NUCC-0226689, NUCC-0226694, NUCC-0226695, and NUCC-0226698.

RXF 393 = test: NCI 60 five-dose screen RXF 393; assay type: cell-based; details: Homo sapiens; for CC50: read-out: LC50 (the source's name) (converted)
NCI-H226 = test: NCI 60 five-dose screen NCI-H226; assay type: cell-based; details: Homo sapiens; for CC50: read-out: LC50 (the source's name) (converted)
SF-268 = test: NCI 60 five-dose screen SF-268; assay type: cell-based; details: Homo sapiens; for CC50: read-out: LC50 (the source's name) (converted)
HOP-92 = test: NCI 60 five-dose screen HOP-92; assay type: cell-based; details: Homo sapiens; for CC50: read-out: LC50 (the source's name) (converted)
HCT-116 = test: NCI 60 five-dose screen HCT-116; assay type: cell-based; details: Homo sapiens; for CC50: read-out: LC50 (the source's name) (converted)
K-562 = test: NCI 60 five-dose screen K-562; assay type: cell-based; details: Homo sapiens
[2] = MV4-11, 72 h, MV-4-11 cells, 3 days, CellTiter-Glo 2.0, read-out: IC50 (uM) [Cell Type: MV-4-11]
[3] = MV4-11, bound stated in text, read-out: IC50 against MV-4-11 acute myeloid leukemia cells

## Fc1ccc(N2CC(Cn3c(C(F)(F)F)cc4c(Cl)ncnc43)C2)c(F)c1 [NUCC-0226695]
IGROV1; IGROV-1
  GI50: 1.86 µM
  IC50: 3.24 µM
  IC (TGI): 3.55 µM
IGROV1; IGROV-1, read-out: LC50 (the source's name) (converted)
  CC50: 6.76 µM
HCT-15
  GI50: 1.78 µM
  IC50: 3.09 µM
  IC (TGI): 3.55 µM
  CC50: 7.08 µM
EKVX
  GI50: 6.61 µM
  IC50: 16.6 µM
  IC (TGI): 20 µM
  CC50: 46.8 µM
CCRF-CEM
  GI50: 10.5 µM
  IC50: 41.7 µM
  IC (TGI): 100 µM
  CC50: ≥ 100 µM
786-0
  GI50: 14.8 µM
  IC50: 26.3 µM
  IC (TGI): 28.8 µM
  CC50: 57.5 µM
BT-549
  GI50: 10.7 µM
  IC50: 23.4 µM
  IC (TGI): 22.9 µM
  CC50: 49 µM
NCI-H460
  GI50: 3.98 µM
  IC50: 4.68 µM
  IC (TGI): 14.5 µM
  CC50: 44.7 µM
NCI-H522
  GI50: 1.82 µM
  IC50: 3.47 µM
  IC (TGI): 3.98 µM
NCI-H522; read-out: LC50 (the source's name) (converted)
  CC50: 8.71 µM
NCI/ADR-RES
  GI50: 10.2 µM
  IC50: 18.2 µM
  IC (TGI): 26.3 µM
  CC50: 69.2 µM
MCF7
  GI50: 8.13 µM
  IC50: 12.9 µM
  IC (TGI): 23.4 µM
  CC50: 60.3 µM
[1]; [2]
  IC50: 0.739 µM
[1]; [3]
  IC50: < 2 µM
CAKI-1
  GI50: 11.7 µM
  IC50: 20.4 µM
  IC (TGI): 24 µM
  CC50: 50.1 µM
OVCAR-8
  GI50: 2.14 µM
  IC50: 3.47 µM
  IC (TGI): 5.01 µM
  CC50: 19.1 µM
Full NCI 60 cell panel
  growth inhibition in the One-Dose Screen: significant growth inhibition
RXF 393
  GI50: 2.09 µM
  IC50: 5.37 µM
  IC (TGI): 5.01 µM
  CC50: 15.5 µM
NCI-H226
  GI50: 14.1 µM
  IC50: 33.9 µM
  IC (TGI): 30.9 µM
  CC50: 69.2 µM
SF-268
  GI50: 3.16 µM
  IC50: 5.62 µM
  IC (TGI): 11.2 µM
  CC50: 47.9 µM
HOP-92
  GI50: 11 µM
  IC50: 26.9 µM
  IC (TGI): 25.7 µM
  CC50: 58.9 µM
HCT-116
  GI50: 1.91 µM
  IC50: 3.16 µM
  IC (TGI): 3.89 µM
  CC50: 7.94 µM
K-562; K562
  GI50: 2.34 µM
  IC50: 3.09 µM
  IC (TGI): 7.08 µM
K-562; K562, read-out: LC50 (the source's name)
  CC50: ≥ 100 µM

## FC(F)(F)c1cc2c(Cl)ncnc2n1CCN1CCOCC1 [NUCC-0226680]
IGROV1; IGROV-1, five-dose
  GI50: 2.51 µM
  IC50: 3.98 µM
  IC (TGI): 7.59 µM
IGROV1; IGROV-1, five-dose, read-out: LC50 (the source's name) (converted)
  CC50: 35.5 µM
HCT-15; five-dose
  GI50: 3.31 µM
  IC50: 4.27 µM
  IC (TGI): 17.8 µM
  CC50: ≥ 100 µM
EKVX; five-dose
  GI50: 17 µM
  IC50: 50.1 µM
  IC (TGI): 95.5 µM
  CC50: ≥ 100 µM
CCRF-CEM; five-dose
  GI50: 16.6 µM
  IC50: 35.5 µM
  IC (TGI): 100 µM
  CC50: ≥ 100 µM
786-0; five-dose
  GI50: 37.2 µM
  IC50: 61.7 µM
  IC (TGI): 100 µM
  CC50: ≥ 100 µM
BT-549; five-dose
  GI50: 13.5 µM
  IC50: 28.2 µM
  IC (TGI): 28.2 µM
  CC50: 58.9 µM
NCI-H460; five-dose
  GI50: 23.4 µM
  IC50: 28.2 µM
  IC (TGI): 100 µM
  CC50: ≥ 100 µM
NCI-H522; five-dose
  GI50: 1.48 µM
  IC50: 2.95 µM
  IC (TGI): 3.31 µM
NCI/ADR-RES; five-dose
  GI50: 30.2 µM
  IC50: 57.5 µM
  IC (TGI): 100 µM
  CC50: ≥ 100 µM
MCF7; five-dose
  GI50: 25.1 µM
  IC50: 35.5 µM
  IC (TGI): 100 µM
  CC50: ≥ 100 µM
[1]; [2]
  IC50: 0.679 µM
[1]; [3]
  IC50: < 2 µM
CAKI-1; five-dose
  GI50: 27.5 µM
  IC50: 56.2 µM
  IC (TGI): 100 µM
  CC50: ≥ 100 µM
OVCAR-8; five-dose
  GI50: 8.51 µM
  IC50: 13.8 µM
  IC (TGI): 29.5 µM
  CC50: 93.3 µM
Full NCI 60 cell panel
  growth inhibition in the One-Dose Screen: significant growth inhibition
RXF 393; five-dose
  GI50: 14.8 µM
  IC50: 42.7 µM
  IC (TGI): 40.7 µM
  CC50: ≥ 100 µM
NCI-H226; five-dose
  GI50: 100 µM
  IC50: 100 µM
  IC (TGI): 100 µM
  CC50: ≥ 100 µM
SF-268; five-dose
  GI50: 14.8 µM
  IC50: 28.2 µM
  IC (TGI): 33.9 µM
  CC50: 77.6 µM
HOP-92; five-dose
  GI50: 19.1 µM
  IC50: 79.4 µM
  IC (TGI): 60.3 µM
  CC50: ≥ 100 µM
HCT-116; five-dose
  GI50: 4.68 µM
  IC50: 5.62 µM
  IC (TGI): 100 µM
  CC50: ≥ 100 µM
K-562; K562, five-dose
  GI50: 3.02 µM
  IC50: 3.72 µM
  IC (TGI): 18.6 µM
K-562; K562, five-dose, read-out: LC50 (the source's name)
  CC50: ≥ 100 µM
